The text below walks through data of US8569055B2, “Identification and characterization of cancer stem cells and methods of use” (City of Hope, priority 2006, dated 2013).

Holding throughout (type): cell-based, human
The subject of assay [1] is non-sorted NCI-H211, NCI-H69AR, NCI-H1417 cells. As to the kind of experiment: Cytotoxicity assay (Guava ViaCount), 5-FU, non-sorted SCLC cell lines. To be noted: 5-FU up to 200 μg/ml, 72 hours. The protocol: (§1) FIG. 2: Cytotoxic effect of 5-FU on non-sorted and sorted (uPAR-positive and uPAR-negative populations) derived from SCLC cell lines. (A) […] cells (H211, H69AR, H1417) were placed in wells of a 48-well plate in triplicates and incubated for 72 hr in the presence of varying concentrations of 5-FU. (B) SCLC cell lines were FACS sorted after staining with anti-uPAR antibodies and were plated at the same seeding density ([…]/well of 96-well plate) and treated with 5-FU at […] for 72 hr. Cell survival was evaluated after adding Guava ViaCount reagent and counting viable and dead cells. Only viable cells were included in data analysis, and 100% viability was defined as number of viable cells cultured in absence of 5-FU. […] The data points represent averages±SD of three independent experiments. […]
(§2) Cells were counted, placed into 96-well plates (4×10^3 cells/well, in triplicate), and treated with 5-fluorouracil (5-FU) at a final concentration of 0, 3, 10, 100, or 200 μg/ml. After incubation for 72 hours, both viable and dead cells were counted using the Guava ViaCount assay. […] Fluorescence of the dyes allows quantitative assessment of both viable and non-viable cells in suspension. […]

In assay [2] the test system is uPAR-positive sorted NCI-H211 cells. In words: Cytotoxicity assay (Guava ViaCount), 5-FU, sorted uPAR-positive NCI-H211. To be noted: uPAR-positive sorted NCI-H211, 72 hours. The protocol: as §1, §2
Assay [3] deals with uPAR-positive sorted NCI-H1417 cells. In words: Cytotoxicity assay (Guava ViaCount), 5-FU, sorted uPAR-positive NCI-H1417. To be noted: uPAR-positive sorted NCI-H1417, 72 hours. The protocol:
as §1, §2

Assay [4] deals with uPAR-positive NCI-H69AR cells. In words: Cytotoxicity assay (Guava ViaCount), 5-FU, sorted uPAR-positive NCI-H69AR. To be noted: 72 hours. As to the method: as §1, §2
Assay [5] has as its system uPAR-negative NCI-H69AR cells. As to the kind of experiment: Cytotoxicity assay (Guava ViaCount), 5-FU, sorted uPAR-negative NCI-H69AR. To be noted: 72 hours. As to the method:
as §1, §2

Another assay relates to NSC F3 stem cell. As to the kind of experiment: Inhibition of stem cell migration by uPAR inhibitors, in vitro migration assay. To be noted: inhibitor applied to lower chamber of migration assay system. An excerpt: FIG. 10: Inhibition of NSC F3 stem cell migration by anti-uPAR antibodies and bikunin.
The role of the uPA/uPAR system in stem cell migration was investigated using the immortalized neural stem cell line (NSC) HB1.F3.C1 and bone marrow-derived mesenchymal stem cells (MSC) (passages 5-6) for in vitro cell migration assays. Five cancer cell lines expressing high levels of uPAR (SK-N-AS, U251, PC-3, MDA-MB-231, and CRL-5904) and five cancer cell lines expressing low levels of uPAR (COLO-320, NB-1691, CRL-5824, CRL-5869, and MCF-7) as determined in Example 6 were utilized for this experiment.
The effect of uPAR inhibitors on stem cell migration was examined in order to verify that increased stem cell migration to tumor cells expressing high levels of uPAR was dependent on uPAR. Bikunin, a physiological inhibitor of uPA, and various anti-uPAR antibodies were applied to the lower chamber of the migration assay system.

Turning to `O=c1[nH]cc(F)c(=O)[nH]1` [5-FU, 5-fluorouracil], the cells killed in assay [1] is 40-80%; in assay [2] it was 40-50%; in assay [3], 40-50%; in assay [4] (10 μg/ml 5-FU), 30%; in assay [5] (10 μg/ml 5-FU) it was 85%. The killing effect result in assay [4] (200 μg/ml 5-FU) and in assay [5] (200 μg/ml 5-FU) was “approximately 100%” each time.

B1: Bikunin: a physiological inhibitor of uPA (protein, UniProt P02760 206-352, looked up)
Inter-alpha-trypsin inhibitor …: AVLPQEEEGSGGGQLVTEVTKKEDSCQLGYSAGPCMGMTSRYFYNGTSMACETFQYGGCMGNGNNFVTEKECLQTCRTVAACNLPIVRGPCRAFIQLWAFDAVKGKCVLFPYGGCQGNGNKFYSEKECREYCGVPGDGDEELLRFSN
modifications: Inter-alpha-trypsin inhibitor light chain
As to B1, in the assay with NSC F3 stem cell, the “inhibition of stem cell migration” value is “effectively inhibited stem cell migration”.
